Where a name gives a salt, the structure may show the parent alone.
Experiment: degradation kinetics of fluvastatin in aqueous solution at various pH
Type: physicochemical

## CC(C)n1c(/C=C/C(O)CC(O)CC(=O)O)c(-c2ccc(F)cc2)c2ccccc21 (stereo not drawn) [fluvastatin, R*,S*-(E)-(±)-7-[3-(4-fluorophenyl)-1-(1-methyl-ethyl)-1H-indol-2-yl]-3,5-dihydroxy-6-heptenoic acid, sodium salt]
pH 1.0, 37° C.
  % fluvastatin remaining at 37° C. after 1 hour: 10.9%
  % fluvastatin remaining at 37° C. after 24 hrs: 0%
pH 4.0, 37° C.
  % fluvastatin remaining at 37° C. after 1 hour: 86.7%
  % fluvastatin remaining at 37° C. after 24 hrs: 25.2%
pH 6.0, 37° C.
  % fluvastatin remaining at 37° C. after 1 hour: 99.6%
  % fluvastatin remaining at 37° C. after 24 hrs: 97.1%
pH 7.8, 37° C.
  % fluvastatin remaining at 37° C. after 1 hour: 98.3%
  % fluvastatin remaining at 37° C. after 24 hrs: 98.0%
